Entries after “also recorded” stand apart in the source; their conditions may differ. Like-named read-outs stand apart in the source and are kept apart here.
Tests used:
[1] = tested on: PC-3 cells; assay: cellular growth (proliferation) assay, resazurin; format: cell-based; details: for antiproliferative effect after UV irradiation: 365 nm, 1.1 kW/m^2, 48 h; for TGI (total growth inhibition) mark: without UV irradiation
Description: Growth assays on VEGFR-2 dependent PC-3 cells were performed.
PC-3 cells were purchased from CLS Cell Lines Service GmbH (Eppelheim, Germany). The cells were grown in DMEM:Hams F12 (1:1) medium with 5% FCS. PC-3 cells were incubated in a 5% CO2 humidified atmosphere at 37 °C.
The cells were grown in cell flasks until approximately 90% confluence and then seeded to give 13000 cells in 100 μL per well into 96-well CulturePlates™ (Perkin Elmer). In addition to the test plates, one plate was prepared for reference measurement at day zero. All plates were incubated for 24 h at 37 °C in a humidified atmosphere with 5% CO2. Compounds 1, 3, 4, and 5 were dissolved in 100% DMSO (v/v) and added to the test plates. The final DMSO concentration in the assay was 0.5% (v/v). Viability of the cells in the day zero control plates were determined on the same day without adding any compounds. For viability measurement the resazurin assay was used. The shift in the fluorescence signal was measured at the LS55 Fluorescence spectrometer (Perkin Elmer). For the photoactivation experiments the test plates were irradiated at 365 nm for 5 min (LED source: 8× Nichia NCSU033B, Sahlmann Photochemical Solutions, 50%, 1.1 kW/m^2). Test plates were incubated for further 48 h and cell viability was defined as described above. Measured raw data was converted into percent of cell growth by using the high control (0.5% DMSO (v/v) without compound) and the day zero control. For dose-response studies, 11 different concentrations of compounds were tested in duplicates. IC50 values were calculated using the 4-parameter logarithmic fit option of GraphPad Prism 5.

[2] = target: T1, VEGFR-2 (Homo sapiens, UniProt P35968); assay: radiometric 33PanQinase VEGFR-2 kinase assay (ProQinase); format: biochemical; details: 10 semi-log concentrations, single samples, 1% DMSO
T1 construct: determined using VEGFR-2 protein kinase by a radiometric ^33PanQinase® assay; purchased ProQinase (Freiburg, Germany)
Description: As predicted by molecular modeling, insertion of the protecting group DMNB should diminish the inhibitory activity both of the maleimide 1 and the carbazole 3. […] The IC50 values towards VEGFR-2 were determined (Table 1).
The VEGFR-2 IC50 profile for 1, 3, 4 and 5 was determined using VEGFR-2 protein kinase by a radiometric ^33PanQinase® assay. […] Prior to testing, the compounds were dissolved to prepare 1 × 10^−2 M stock solutions in 100% DMSO. The final DMSO concentration in the reaction cocktails was 1% in all cases. Analyses were performed by ProQinase (Freiburg, Germany).

[3] = photoactivation (uncaging) at 365 nm in DMSO (HPLC, LC-MS); format: physicochemical; details: 1 mM in DMSO, 5.4 W, up to 10 min
Excerpt: A further prerequisite for an application of caged prodrugs is a rapid and quantitative release of active parent compounds by irradiation. To examine this, we investigated the uncaging of 4 and 5 induced by irradiation at 365 nm with 5.4 W (Figure 5). […] Initially released maleimide 1 is converted to the intermediate 2 by proceeding irradiation, which is in line to the previously described instability of 1, (compare Figure 4a). […] Due to UV stability of 3 no other by-products could be detected.
After 0.25, 0.5, 0.75, 1, 2, 3, 5 and 10 min of irradiation samples were taken. Aliquots were diluted 1:5 with methanol and subsequently analyzed by HPLC. Additional to retention time LC-MS was used to proof identity.

[4] = tested on: PC-3 cells; assay: cellular uptake by fluorescence microscopy (cell staining); format: cell-based; details: live PC-3 cells, 10 µM, 30 min, autofluorescence
Description: Next, we investigated the cellular bioavailability of the caged prodrugs. For this purpose, we used the autofluorescence of the carbazole 3 and its caged derivative 5. The emission spectra of both compounds are shown in the Supplementary Figure S6. The fluorescence microscopy was used to explore the uptake of the compounds into the cells. Live PC-3 cells were stained with 10 µM solutions of 3 or 5, and then fixed with formalin. Subsequently, the cell nuclei were counterstained with 1 µg/mL DAPI.
PC-3 cells were stained with the carbazole 3 and its caged derivative 5. For this purpose, the cells were seeded to give 15,000 cells in 50 µL per well into 96-well half area microplate (Ref.: 675986, Greiner bio-one, Kremsmünster, Austria). The plate was incubated for 48 h at 37 °C in a humidified atmosphere with 5% CO2. Compounds 3 and 5 were dissolved in DMEM:Hams F12 (1:1) medium with 5% FCS and added to the cells to give the endconcentration of 10 µM, respectively. The cells were incubated with the compounds for 30 min at 37 °C. After that, the cells were washed twice with PBS and fixed with 3.3% formalin for 15 min. […] After 30 min incubation at 37 °C, the cells were washed with PBS and the fluorescence images were taken at the ImageXpress® Micro XL (Molecular Devices, Sunnyvale CA, USA). […]

[5] = Homo sapiens, PC-3, light or radiation study, irradiated at 365 nm, 5 min, 1.1 kW/m^2, cell growth after 48 h, read-out: GI50 after Irradiation
[6] = irradiated at 365 nm, 5 min, 1.1 kW/m^2, cell growth after 48 h, read-out: GI50 after Irradiation

T1 sequence (P35968 20-1356): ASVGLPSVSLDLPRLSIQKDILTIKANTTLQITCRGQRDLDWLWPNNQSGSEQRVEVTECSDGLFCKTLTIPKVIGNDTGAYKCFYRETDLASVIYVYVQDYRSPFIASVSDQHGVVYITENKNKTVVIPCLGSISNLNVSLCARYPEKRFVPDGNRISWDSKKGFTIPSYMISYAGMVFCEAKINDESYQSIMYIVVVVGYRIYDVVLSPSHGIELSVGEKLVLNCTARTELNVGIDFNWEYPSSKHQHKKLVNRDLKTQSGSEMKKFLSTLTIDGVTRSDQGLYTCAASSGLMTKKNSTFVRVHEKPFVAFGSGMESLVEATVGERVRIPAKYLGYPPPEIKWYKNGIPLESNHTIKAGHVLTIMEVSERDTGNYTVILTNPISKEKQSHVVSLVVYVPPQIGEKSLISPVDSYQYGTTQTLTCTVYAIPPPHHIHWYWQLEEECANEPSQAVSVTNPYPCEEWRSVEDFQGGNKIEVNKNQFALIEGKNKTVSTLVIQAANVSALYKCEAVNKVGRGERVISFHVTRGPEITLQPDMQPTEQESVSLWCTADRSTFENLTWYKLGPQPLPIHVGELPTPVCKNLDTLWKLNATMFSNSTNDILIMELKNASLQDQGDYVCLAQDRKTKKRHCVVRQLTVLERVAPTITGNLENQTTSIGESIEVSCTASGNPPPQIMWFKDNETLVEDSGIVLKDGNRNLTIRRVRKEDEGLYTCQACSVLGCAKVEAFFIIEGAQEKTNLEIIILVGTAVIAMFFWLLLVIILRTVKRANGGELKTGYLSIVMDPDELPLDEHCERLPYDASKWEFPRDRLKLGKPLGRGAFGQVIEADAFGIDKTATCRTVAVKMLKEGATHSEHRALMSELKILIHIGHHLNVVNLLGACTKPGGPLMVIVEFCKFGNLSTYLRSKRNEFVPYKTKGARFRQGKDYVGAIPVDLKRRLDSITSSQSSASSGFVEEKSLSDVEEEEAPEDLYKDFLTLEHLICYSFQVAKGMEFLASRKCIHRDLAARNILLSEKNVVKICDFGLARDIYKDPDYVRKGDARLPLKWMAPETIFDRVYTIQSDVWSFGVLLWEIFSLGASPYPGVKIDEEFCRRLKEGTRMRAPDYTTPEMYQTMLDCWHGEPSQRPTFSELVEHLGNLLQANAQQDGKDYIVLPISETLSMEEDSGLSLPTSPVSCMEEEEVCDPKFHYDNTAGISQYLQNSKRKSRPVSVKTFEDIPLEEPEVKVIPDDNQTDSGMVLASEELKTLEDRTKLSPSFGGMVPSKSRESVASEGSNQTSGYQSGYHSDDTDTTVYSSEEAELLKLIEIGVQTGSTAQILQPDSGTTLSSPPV

Row | melting point [°C] | GI50 [1, 5] [µM] | GI50 without Irradiation ([1]; no UV irradiation, cell growth after 48 h) | IC50 [2] [µM] | photoinduced release of parent compound (uncaging) [3] | GI50 ([1]; Homo sapiens, PC-3, light or radiation study, 48 h, no UV irradiation, cell growth after 48 h, read-out: GI50 without Irradiation) [µM] | GI50 [1, 6] [µM] | Compound | antiproliferative effect after UV irradiation ([1]; 5 min) | antiproliferative effect without UV irradiation ([1]; no UV irradiation, 48 h) | concentration at which the cleaved PPG shows toxicity relative to efficacious concentration of the irradiated compound ([1]; after irradiation, PPG from DMNB-Boc-Ala) | TGI (total growth inhibition) mark ([1]; 48 h) | cellular uptake [4]
1 |  |  |  |  |  |  |  | C[C@H](NC(=O)OC(C)(C)C)C(=O)O [Boc-Ala, reference compound] | does not have any effect on cellular growth | do not show any; also recorded: did not show any antiproliferative effects |  |  | 
2 | 205 | 0.1 | not reached | 4.59 | cleavage of the DMNB PPG |  |  | COc1cc(CN2C(=O)C(c3cc(OC)c(OC)c(OC)c3)=C(c3c[nH]c4ccccc34)C2=O)c([N+](=O)[O-])cc1OC [Compound 4, 1-(4,5-Dimethoxy-2-nitrobenzyl)-3-(1H-indol-3-yl)-4-(3,4,5-trimethoxyphenyl)-1H-pyrrole-2,5-dione] |  | do not show any; also recorded: very marginal antiproliferative activity | approximately 500 fold | not reached even at high concentrations | 
3 | 283 | 0.22 |  | 44.8 | rapidly released | 34.6 | 0.2 | COc1cc(CN2C(=O)c3c(c4c5ccccc5[nH]c4c4c(OC)c(OC)c(OC)cc34)C2=O)c([N+](=O)[O-])cc1OC [Compound 5, 2-(4,5-Dimethoxy-2-nitrobenzyl)-5,6,7-trimethoxybenzo[a]pyrrolo[3,4-c]carbazole-1,3(2H,8H)-dione] |  |  |  | not reached even at high concentrations | taken up into the cells, but not within the cell nuclei
4 |  |  |  |  |  |  | 50.3 | COc1cc(COC(=O)[C@H](C)NC(=O)OC(C)(C)C)c([N+](=O)[O-])cc1OC [DMNB-Boc-Ala, reference compound] | distinct antiproliferative activity | do not show any; also recorded: did not show any antiproliferative effects |  |  | 

From PMC6274539, “Photoactivatable Caged Prodrugs of VEGFR-2 Kinase Inhibitors” (Molecules, 2016)
